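Method: 48-hour compound exposure of cells in 96-well plates, five concentrations, linear interpolation of endpoints. TGI is the concentration that stops growth completely.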
Assays:
Assay in all cases: growth of human tumour cells (NCI), 48 h
OVCAR-4 ovarian = test system: OVCAR-4 ovarian
HCC-2998 colon = test system: HCC-2998 colon
HCT-15 colon = test system: HCT-15 colon
DLD-1 colon = test system: DLD-1 colon
A549 NSCLC = test system: A549 NSCLC
HL-60(TB) leukemia = test system: HL-60(TB) leukemia
SW-620 colon = test system: SW-620 colon
EKVX NSCLC = test system: EKVX NSCLC
OVCAR-8 ovarian = test system: OVCAR-8 ovarian
OVCAR-3 ovarian = test system: OVCAR-3 ovarian
MALME-3M melanoma = test system: MALME-3M melanoma
CCRF-CEM leukemia = test system: CCRF-CEM leukemia
SN12C renal = test system: SN12C renal
ACHN renal = test system: ACHN renal
U251 CNS = test system: U251 CNS
DMS 273 small cell lung = test system: DMS 273 small cell lung
M14 melanoma = test system: M14 melanoma
SK-OV-3 ovarian = test system: SK-OV-3 ovarian
NCI-H460 lung = test system: NCI-H460 lung
LOX IMVI melanoma = test system: LOX IMVI melanoma
UO-31 renal = test system: UO-31 renal
CAKI-1 renal = test system: CAKI-1 renal
RXF 393 renal = test system: RXF 393 renal
SNB-78 CNS = test system: SNB-78 CNS
HOP-18 NSCLC = test system: HOP-18 NSCLC
SF-295 CNS = test system: SF-295 CNS
NCI-H23 lung = test system: NCI-H23 lung
TK-10 renal = test system: TK-10 renal
HT29 colon = test system: HT29 colon
XF 498 CNS = test system: XF 498 CNS
UACC-62 melanoma = test system: UACC-62 melanoma
LXFL 529 NSCLC = test system: LXFL 529 NSCLC
COLO 205 colon = test system: COLO 205 colon
KM20L2 colon = test system: KM20L2 colon
HOP-62 NSCLC = test system: HOP-62 NSCLC
IGROV1 ovarian = test system: IGROV1 ovarian
M19-MEL melanoma = test system: M19-MEL melanoma
HOP-92 NSCLC = test system: HOP-92 NSCLC
SNB-75 CNS = test system: SNB-75 CNS
SK-MEL-28 melanoma = test system: SK-MEL-28 melanoma
786-0 renal = test system: 786-0 renal
K-562 leukemia = test system: K-562 leukemia
SF-268 CNS = test system: SF-268 CNS
DMS 114 small cell lung = test system: DMS 114 small cell lung
KM12 colon = test system: KM12 colon
SNB-19 CNS = test system: SNB-19 CNS
SK-MEL-2 melanoma = test system: SK-MEL-2 melanoma
A498 renal = test system: A498 renal
SR leukemia = test system: SR leukemia
SF-539 CNS = test system: SF-539 CNS
NCI-H522 lung = test system: NCI-H522 lung
HCT-116 colon = test system: HCT-116 colon
NCI-H226 lung = test system: NCI-H226 lung
MOLT-4 leukemia = test system: MOLT-4 leukemia
UACC-257 melanoma = test system: UACC-257 melanoma
RPMI-8226 leukemia = test system: RPMI-8226 leukemia
SK-MEL-5 melanoma = test system: SK-MEL-5 melanoma
OVCAR-5 ovarian = test system: OVCAR-5 ovarian

O=C1C2CC=CCC2C(=O)C12CCc1ccccc12 (configuration not stated)
TGI (OVCAR-4 ovarian): > 100 µM | TGI (HCC-2998 colon): > 100 µM | TGI (HCT-15 colon): > 100 µM | TGI (DLD-1 colon): > 100 µM | TGI (A549 NSCLC): > 100 µM | TGI (HL-60(TB) leukemia): > 100 µM | TGI (SW-620 colon): > 100 µM | TGI (EKVX NSCLC): > 100 µM | TGI (OVCAR-8 ovarian): > 100 µM | TGI (OVCAR-3 ovarian): > 100 µM | TGI (MALME-3M melanoma): > 100 µM | TGI (CCRF-CEM leukemia): > 100 µM | TGI (SN12C renal): > 100 µM | TGI (ACHN renal): > 100 µM | TGI (U251 CNS): > 100 µM | TGI (DMS 273 small cell lung): > 100 µM | TGI (M14 melanoma): > 100 µM | TGI (SK-OV-3 ovarian): > 100 µM | TGI (NCI-H460 lung): > 100 µM | TGI (LOX IMVI melanoma): > 100 µM | TGI (UO-31 renal): > 100 µM | TGI (CAKI-1 renal): > 100 µM | TGI (RXF 393 renal): > 100 µM | TGI (SNB-78 CNS): > 100 µM | TGI (HOP-18 NSCLC): > 100 µM | TGI (SF-295 CNS): > 100 µM | TGI (NCI-H23 lung): > 100 µM | TGI (TK-10 renal): > 100 µM | TGI (HT29 colon): > 100 µM | TGI (XF 498 CNS): > 100 µM | TGI (UACC-62 melanoma): > 100 µM | TGI (LXFL 529 NSCLC): > 100 µM | TGI (COLO 205 colon): > 100 µM | TGI (KM20L2 colon): > 100 µM | TGI (HOP-62 NSCLC): > 100 µM | TGI (IGROV1 ovarian): > 100 µM | TGI (M19-MEL melanoma): > 100 µM | TGI (HOP-92 NSCLC): > 100 µM | TGI (SNB-75 CNS): > 100 µM | TGI (SK-MEL-28 melanoma): > 100 µM | TGI (786-0 renal): > 100 µM | TGI (K-562 leukemia): > 100 µM | TGI (SF-268 CNS): > 100 µM

COC(=O)c1ccc(NC(=O)c2cc(OC)c(OC)c(OC)c2)cc1
TGI (OVCAR-4 ovarian): > 100 µM | TGI (HCC-2998 colon): 6.67 µM | TGI (DLD-1 colon): > 100 µM | TGI (A549 NSCLC): > 100 µM | TGI (HL-60(TB) leukemia): 4.8 µM | TGI (DMS 114 small cell lung): 0.706 µM | TGI (SW-620 colon): > 100 µM | TGI (EKVX NSCLC): > 100 µM | TGI (KM12 colon): > 100 µM | TGI (OVCAR-8 ovarian): > 100 µM | TGI (OVCAR-3 ovarian): 7.77 µM | TGI (MALME-3M melanoma): > 100 µM | TGI (CCRF-CEM leukemia): > 100 µM | TGI (SNB-19 CNS): > 100 µM | TGI (ACHN renal): > 100 µM | TGI (DMS 273 small cell lung): > 100 µM | TGI (M14 melanoma): > 100 µM | TGI (SK-OV-3 ovarian): 98.4 µM | TGI (NCI-H460 lung): > 100 µM | TGI (LOX IMVI melanoma): > 100 µM | TGI (UO-31 renal): 66.9 µM | TGI (RXF 393 renal): 77.2 µM | TGI (SK-MEL-2 melanoma): > 100 µM | TGI (HOP-18 NSCLC): > 100 µM | TGI (A498 renal): > 100 µM | TGI (SR leukemia): > 72.8 µM | TGI (SF-539 CNS): 5.5 µM | TGI (NCI-H522 lung): 3.58 µM | TGI (HCT-116 colon): > 100 µM | TGI (SF-295 CNS): > 100 µM | TGI (TK-10 renal): > 100 µM | TGI (HT29 colon): > 100 µM | TGI (NCI-H226 lung): > 85.4 µM | TGI (MOLT-4 leukemia): > 100 µM | TGI (UACC-62 melanoma): > 100 µM | TGI (LXFL 529 NSCLC): > 100 µM | TGI (KM20L2 colon): > 100 µM | TGI (HOP-62 NSCLC): > 100 µM | TGI (IGROV1 ovarian): > 100 µM | TGI (M19-MEL melanoma): > 100 µM | TGI (HOP-92 NSCLC): > 100 µM | TGI (SNB-75 CNS): > 100 µM | TGI (SK-MEL-28 melanoma): > 100 µM | TGI (786-0 renal): > 100 µM | TGI (K-562 leukemia): 12 µM | TGI (SF-268 CNS): > 100 µM

CCCCCCCC(=O)OCC(C[As](=O)(O)O)OC(=O)CCCCCCC (configuration not stated)
TGI (OVCAR-4 ovarian): 34 µM | TGI (HCC-2998 colon): 31.7 µM | TGI (HCT-15 colon): 28.5 µM | TGI (DLD-1 colon): 30.9 µM | TGI (A549 NSCLC): 53.3 µM | TGI (HL-60(TB) leukemia): 38.9 µM | TGI (DMS 114 small cell lung): 30.6 µM | TGI (SW-620 colon): 29.1 µM | TGI (UACC-257 melanoma): 28.1 µM | TGI (EKVX NSCLC): 33.8 µM | TGI (RPMI-8226 leukemia): > 100 µM | TGI (OVCAR-8 ovarian): 30.3 µM | TGI (MALME-3M melanoma): 28.5 µM | TGI (CCRF-CEM leukemia): 28 µM | TGI (SN12C renal): 27.9 µM | TGI (SNB-19 CNS): 28.2 µM | TGI (ACHN renal): 30.6 µM | TGI (U251 CNS): 28.2 µM | TGI (DMS 273 small cell lung): 27.4 µM | TGI (M14 melanoma): 28.5 µM | TGI (SK-OV-3 ovarian): 29.1 µM | TGI (UO-31 renal): 28.2 µM | TGI (RXF 393 renal): 18.2 µM | TGI (SNB-78 CNS): 44.1 µM | TGI (HOP-18 NSCLC): 29.3 µM | TGI (A498 renal): 33.2 µM | TGI (SR leukemia): 60.8 µM | TGI (SF-539 CNS): 27.1 µM | TGI (NCI-H522 lung): 26.6 µM | TGI (HCT-116 colon): 30.3 µM | TGI (SF-295 CNS): 30.6 µM | TGI (NCI-H23 lung): 28.7 µM | TGI (HT29 colon): 33.4 µM | TGI (NCI-H226 lung): 37.5 µM | TGI (MOLT-4 leukemia): 51.9 µM | TGI (UACC-62 melanoma): 27 µM | TGI (LXFL 529 NSCLC): 26.3 µM | TGI (COLO 205 colon): 27.6 µM | TGI (KM20L2 colon): 30.7 µM | TGI (HOP-62 NSCLC): 34.5 µM | TGI (IGROV1 ovarian): 26.9 µM | TGI (M19-MEL melanoma): 32.4 µM | TGI (HOP-92 NSCLC): 25.4 µM | TGI (SNB-75 CNS): 31.1 µM | TGI (SK-MEL-5 melanoma): 32 µM | TGI (SK-MEL-28 melanoma): 29.3 µM | TGI (786-0 renal): 30.9 µM | TGI (K-562 leukemia): 81.9 µM | TGI (SF-268 CNS): 28.7 µM

O=c1nc(NC(c2ccccc2)(c2ccccc2)c2ccccc2)ccn1CCO
TGI (OVCAR-4 ovarian): > 100 µM | TGI (HCC-2998 colon): > 100 µM | TGI (HCT-15 colon): > 100 µM | TGI (DLD-1 colon): > 100 µM | TGI (A549 NSCLC): > 100 µM | TGI (HL-60(TB) leukemia): > 100 µM | TGI (DMS 114 small cell lung): > 100 µM | TGI (SW-620 colon): > 100 µM | TGI (UACC-257 melanoma): > 100 µM | TGI (EKVX NSCLC): > 100 µM | TGI (KM12 colon): > 100 µM | TGI (RPMI-8226 leukemia): > 100 µM | TGI (OVCAR-8 ovarian): > 100 µM | TGI (OVCAR-3 ovarian): > 100 µM | TGI (MALME-3M melanoma): > 100 µM | TGI (SN12C renal): > 100 µM | TGI (SNB-19 CNS): > 100 µM | TGI (ACHN renal): > 100 µM | TGI (U251 CNS): > 100 µM | TGI (NCI-H460 lung): > 100 µM | TGI (LOX IMVI melanoma): > 100 µM | TGI (UO-31 renal): > 100 µM | TGI (RXF 393 renal): > 100 µM | TGI (SNB-78 CNS): > 100 µM | TGI (SK-MEL-2 melanoma): > 100 µM | TGI (HOP-18 NSCLC): > 100 µM | TGI (A498 renal): > 100 µM | TGI (SR leukemia): > 100 µM | TGI (SF-539 CNS): > 100 µM | TGI (NCI-H522 lung): > 100 µM | TGI (HCT-116 colon): > 100 µM | TGI (SF-295 CNS): > 100 µM | TGI (NCI-H23 lung): > 100 µM | TGI (TK-10 renal): > 100 µM | TGI (HT29 colon): > 100 µM | TGI (NCI-H226 lung): > 100 µM | TGI (MOLT-4 leukemia): > 100 µM | TGI (OVCAR-5 ovarian): > 100 µM | TGI (LXFL 529 NSCLC): > 100 µM | TGI (COLO 205 colon): > 100 µM | TGI (KM20L2 colon): > 100 µM | TGI (HOP-62 NSCLC): > 100 µM | TGI (IGROV1 ovarian): > 100 µM | TGI (HOP-92 NSCLC): > 100 µM | TGI (SNB-75 CNS): > 100 µM | TGI (SK-MEL-28 melanoma): > 100 µM | TGI (786-0 renal): > 100 µM | TGI (K-562 leukemia): > 100 µM | TGI (SF-268 CNS): > 100 µM

— PubChem BioAssay (NCI)
